According to US10738057B2, “Tertiary alcohols as PI3K-γ inhibitors” (Incyte Corporation, priority 2017, dated 2020):
Where a name gives a salt, the structure may show the parent alone. Read-outs that look alike come from different tables or passages of the source.

What was measured:
[1] = target: PI3Kδ (p110δ/p85α) Recombinant Human Protein (Homo sapiens (Human), UniProt O00329); assay: PI3Kδ scintillation proximity assay; assay type: biochemical; conditions: 20 μM PIP2, 2 μM ATP, 3.4 nM PI3Kδ, 120 min, room temperature; read-out: PI3Kδ IC50
PI3Kδ (p110δ/p85α) Recombinant Human Protein, sequence (O00329 whole entry): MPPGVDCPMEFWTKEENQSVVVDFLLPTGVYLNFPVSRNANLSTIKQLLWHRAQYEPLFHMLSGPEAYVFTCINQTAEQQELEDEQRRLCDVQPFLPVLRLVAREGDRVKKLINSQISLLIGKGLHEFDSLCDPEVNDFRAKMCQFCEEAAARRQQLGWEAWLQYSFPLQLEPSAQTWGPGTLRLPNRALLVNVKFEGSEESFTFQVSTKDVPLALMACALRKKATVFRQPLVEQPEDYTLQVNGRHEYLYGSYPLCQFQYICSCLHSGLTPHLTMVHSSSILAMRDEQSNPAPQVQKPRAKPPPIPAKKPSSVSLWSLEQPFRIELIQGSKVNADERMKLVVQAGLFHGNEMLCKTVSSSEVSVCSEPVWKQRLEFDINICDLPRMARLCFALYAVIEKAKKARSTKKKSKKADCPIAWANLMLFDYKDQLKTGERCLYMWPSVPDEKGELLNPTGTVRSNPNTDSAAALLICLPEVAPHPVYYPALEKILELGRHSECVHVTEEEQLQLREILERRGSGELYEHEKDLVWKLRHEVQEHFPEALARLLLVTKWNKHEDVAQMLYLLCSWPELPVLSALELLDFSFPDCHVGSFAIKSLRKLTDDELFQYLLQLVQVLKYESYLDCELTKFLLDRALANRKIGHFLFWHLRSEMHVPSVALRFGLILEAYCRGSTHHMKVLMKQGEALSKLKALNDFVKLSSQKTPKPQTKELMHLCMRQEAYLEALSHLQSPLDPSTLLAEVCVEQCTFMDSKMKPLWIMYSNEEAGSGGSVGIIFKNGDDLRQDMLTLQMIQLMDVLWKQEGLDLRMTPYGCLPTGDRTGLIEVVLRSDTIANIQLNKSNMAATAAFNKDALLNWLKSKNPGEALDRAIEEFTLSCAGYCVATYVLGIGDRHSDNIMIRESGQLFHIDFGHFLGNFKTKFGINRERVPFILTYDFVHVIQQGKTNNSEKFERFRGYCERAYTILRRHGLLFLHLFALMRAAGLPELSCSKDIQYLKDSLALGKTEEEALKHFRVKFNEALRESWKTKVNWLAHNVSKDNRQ
PI3Kδ (p110δ/p85α) Recombinant Human Protein, sequence (P27986 whole entry partner): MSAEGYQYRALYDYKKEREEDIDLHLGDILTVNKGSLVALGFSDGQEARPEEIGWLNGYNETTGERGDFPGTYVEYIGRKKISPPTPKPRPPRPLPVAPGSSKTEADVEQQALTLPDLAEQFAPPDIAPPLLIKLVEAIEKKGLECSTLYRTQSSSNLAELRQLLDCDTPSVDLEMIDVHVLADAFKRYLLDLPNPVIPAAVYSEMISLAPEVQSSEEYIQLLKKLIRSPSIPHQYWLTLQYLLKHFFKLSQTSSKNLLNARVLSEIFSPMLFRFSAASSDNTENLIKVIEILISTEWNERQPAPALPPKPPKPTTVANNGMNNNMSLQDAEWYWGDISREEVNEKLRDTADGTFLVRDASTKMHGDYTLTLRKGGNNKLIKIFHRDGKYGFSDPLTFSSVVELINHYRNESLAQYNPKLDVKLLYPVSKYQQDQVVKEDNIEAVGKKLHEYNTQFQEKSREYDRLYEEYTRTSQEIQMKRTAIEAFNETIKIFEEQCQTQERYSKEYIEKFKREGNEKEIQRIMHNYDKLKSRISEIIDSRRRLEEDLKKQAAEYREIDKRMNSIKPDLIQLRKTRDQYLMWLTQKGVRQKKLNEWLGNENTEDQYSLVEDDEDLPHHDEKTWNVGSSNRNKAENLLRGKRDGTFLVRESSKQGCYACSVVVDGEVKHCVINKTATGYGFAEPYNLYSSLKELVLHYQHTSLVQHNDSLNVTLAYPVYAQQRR
Summary of the method: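 Recombinant human p110δ/p85α was run at room temperature in 20 mM MOPS pH 6.7, 10 mM MgCl2, 5 mM DTT, 0.03% CHAPS, 2% DMSO. Substrates were 20 µM PIP2 and 2 µM ATP with [γ-33P]ATP. Product was captured overnight on WGA SPA beads and counted by scintillation; IC50 fitted from percent of solvent control versus log concentration.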

[2] = tested on: Phosphorylated Ribosomal Protein S6 (RPS6) in THP-1 cells; assay: THP-1 RPS6 ELISA assay; assay type: cell-based, Human; conditions: serum starved, 2 h compound, 10 nM MCP-1 for 15 min, phospho-RPS6 ELISA, read-out: PI3Kγ_THP1_RPS6_ELISA IC50
Summary of the method: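 Serum-starved THP-1 cells (2×10^5/well, RPMI) preincubated with compound 2 h at 37° C, then stimulated with 10 nM MCP-1 for 15 min. Lysates assayed by phospho-RPS6 ELISA, absorbance 450 nm (540 nm correction); IC50 from percent inhibition versus log concentration.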

[3] = target: PI3Kγ (p110γ) Recombinant Human Protein (Homo sapiens (Human), UniProt P48736); assay: PI3K-γ scintillation proximity assay; assay type: biochemical; conditions: 20 μM PIP2, 2 μM ATP, 13 nM PI3Kγ, 120 min, room temperature
PI3Kγ (p110γ) Recombinant Human Protein, sequence (P48736 whole entry): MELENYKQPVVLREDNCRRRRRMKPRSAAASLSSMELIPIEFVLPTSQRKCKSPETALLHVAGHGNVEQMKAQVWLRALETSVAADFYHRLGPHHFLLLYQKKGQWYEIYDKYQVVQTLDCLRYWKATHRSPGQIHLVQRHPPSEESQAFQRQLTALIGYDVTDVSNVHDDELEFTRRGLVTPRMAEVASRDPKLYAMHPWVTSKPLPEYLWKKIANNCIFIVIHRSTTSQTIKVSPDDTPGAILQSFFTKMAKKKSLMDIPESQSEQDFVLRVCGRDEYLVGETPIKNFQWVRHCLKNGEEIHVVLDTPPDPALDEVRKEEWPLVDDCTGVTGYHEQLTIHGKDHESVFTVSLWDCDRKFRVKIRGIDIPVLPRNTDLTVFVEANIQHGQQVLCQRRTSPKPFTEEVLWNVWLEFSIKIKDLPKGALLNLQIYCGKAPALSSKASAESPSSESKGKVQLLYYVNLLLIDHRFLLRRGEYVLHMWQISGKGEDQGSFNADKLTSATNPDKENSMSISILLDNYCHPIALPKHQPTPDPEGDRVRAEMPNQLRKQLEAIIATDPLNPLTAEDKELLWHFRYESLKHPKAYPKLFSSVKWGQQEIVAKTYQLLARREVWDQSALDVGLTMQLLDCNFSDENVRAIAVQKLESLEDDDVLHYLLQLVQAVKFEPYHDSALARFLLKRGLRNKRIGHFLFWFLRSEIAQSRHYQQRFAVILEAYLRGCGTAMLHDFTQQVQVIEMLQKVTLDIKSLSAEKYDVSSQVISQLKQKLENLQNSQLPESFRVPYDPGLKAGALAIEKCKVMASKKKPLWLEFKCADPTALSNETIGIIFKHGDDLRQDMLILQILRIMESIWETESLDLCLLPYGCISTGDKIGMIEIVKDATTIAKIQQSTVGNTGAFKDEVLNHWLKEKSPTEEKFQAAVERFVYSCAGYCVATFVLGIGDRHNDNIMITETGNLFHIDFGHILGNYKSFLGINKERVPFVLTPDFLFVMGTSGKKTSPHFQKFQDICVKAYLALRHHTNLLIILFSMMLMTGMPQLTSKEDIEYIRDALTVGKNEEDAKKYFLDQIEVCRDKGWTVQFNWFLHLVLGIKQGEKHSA
Summary of the method: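 Radiometric SPA in 20 mM MOPS pH 6.7, 10 mM MgCl2, 5 mM DTT, 0.03% CHAPS, 2% DMSO. Stopped with EDTA and WGA SPA beads for scintillation counting. IC50 fitted from % solvent-control activity versus log concentration.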

[4] = Homo sapiens, THP-1, THP-1 cells

| SMILES | IC50 [1] | IC50 [2, 4] | IC50 [3] | IC50 ([2]; THP-1 cells) |
| --- | --- | --- | --- | --- |
| Cc1ccc(C(C)(O)C(F)F)cc1-c1cnc2c(N)nc(-c3ccnn3C)cn12 (single isomer, unassigned) [Example 29, 2-(3-(8-Amino-6-(1-methyl-1H-pyrazol-5-yl)imidazo[1,2-a]pyrazin-3-yl)-4-methylphenyl)-1,1-difluoropropan-2-ol 1.2 trifluoroacetate salt] | 100 to 500 nM | 100 to 500 nM | < 100 nM |  |
| [2H]C([2H])([2H])c1ccc(C(C)(O)C(F)(F)F)cc1-c1cnc2c(N)nc(-c3ccc(C(C)O)nc3)cn12 (stereo not drawn) [Example 267, 2-(3-(8-Amino-6-(6-(1-hydroxyethyl)pyridin-3-yl)imidazo[1,2-a]pyrazin-3-yl)-4-(methyl-d3)phenyl)-1,1,1-trifluoropropan-2-ol] | < 100 nM | < 100 nM | < 100 nM |  |
| Cc1cc(-c2cn3c(-c4cc(C(C)(O)C(F)F)ccc4C)cnc3c(N)n2)n(C)n1 (stereo not drawn) [Example 41, 2-(3-(8-Amino-6-(1,3-dimethyl-1H-pyrazol-5-yl)imidazo[1,2-a]pyrazin-3-yl)-4-methylphenyl)-1,1-difluoropropan-2-ol] | 100 to 500 nM | 100 to 500 nM | < 100 nM |  |
| Cc1ccc(C(O)(C(F)(F)F)C(F)(F)F)cc1-c1cnc2c(N)nc(-c3ccnn3C)cn12 [Example 264, 2-(3-(8-Amino-6-(1-methyl-1H-pyrazol-5-yl)imidazo[1,2-a]pyrazin-3-yl)-4-methylphenyl)-1,1,1,3,3,3-hexafluoropropan-2-ol] | < 100 nM | < 100 nM | < 100 nM |  |
| Cc1ccc(C(C)(O)C(F)F)cc1-c1cnc2c(N)nc(-c3cc(C(N)=O)ccc3F)cn12 (stereo not drawn) [Example 31, 3-(8-Amino-3-(5-(1,1-difluoro-2-hydroxypropan-2-yl)-2-methylphenyl)imidazo[1,2-a]pyrazin-6-yl)-4-fluorobenzamide] | 100 to 500 nM | 100 to 500 nM | < 100 nM |  |
| Cc1ccc(C(O)(C(=O)NC23CC(C2)C3)C(F)(F)F)cc1-c1cnc2c(N)nc(C(F)(F)F)cn12 (stereo not drawn) [Example 129, 2-(3-(8-Amino-6-(trifluoromethyl)imidazo[1,2-a]pyrazin-3-yl)-4-methylphenyl)-N-(bicyclo[1.1.1]pentan-1-yl)-3,3,3-trifluoro-2-hydroxypropanamide trifluoroacetate salt] | < 100 nM | < 100 nM | < 100 nM |  |
| CNC(=O)c1cn2c(-c3cc(C(C)(O)C(F)(F)F)ccc3C)cnc2c(N)n1 (stereo not drawn) [Example 9, 8-Amino-N-methyl-3-(2-methyl-5-(1,1,1-trifluoro-2-hydroxypropan-2-yl)phenyl)imidazo[1,2-a]pyrazine-6-carboxamide] | 100 to 500 nM | 100 to 500 nM | < 100 nM |  |
| Cc1ccc(C(C)(O)C(F)(F)F)cc1-c1cnc2c(N)nc(C(=O)NC34CC(C#N)(C3)C4)cn12 (stereo not drawn) [Example 278, 8-Amino-N-(3-cyanobicyclo[1.1.1]pentan-1-yl)-3-(2-methyl-5-(1,1,1-trifluoro-2-hydroxypropan-2-yl)phenyl)imidazo[1,2-a]pyrazine-6-carboxamide trifluoroacetate salt] | 100 to 500 nM | 100 to 500 nM | < 100 nM |  |
| [2H]C([2H])([2H])c1ccc(C(C)(O)C(F)(F)F)cc1-c1cnc2c(N)nc(C(=O)NCC(C)(C)O)cn12 (stereo not drawn) [Example 81, 8-Amino-N-(2-hydroxy-2-methylpropyl)-3-(2-(methyl-d3)-5-(1,1,1-trifluoro-2-hydroxypropan-2-yl)phenyl)imidazo[1,2-a]pyrazine-6-carboxamide] | < 100 nM | 100 to 500 nM | < 100 nM |  |
| Cc1ccc(C(O)(CO)C(F)(F)F)cc1-c1cnc2c(N)nc(C(F)(F)F)cn12 (single isomer, unassigned) [Example 73, 2-(3-(8-Amino-6-(trifluoromethyl)imidazo[1,2-a]pyrazin-3-yl)-4-methylphenyl)-3,3,3-trifluoropropane-1,2-diol] | 100 to 500 nM |  | < 100 nM | 500 to 1000 nM |
| Cc1nc(N)c2ncc(-c3cc(C(C)(O)C(F)(F)F)ccc3C)n2n1 (stereo not drawn) [Example 2, 2-(3-(4-Amino-2-methylimidazo[2,1-f][1,2,4]triazin-7-yl)-4-methylphenyl)-1,1,1-trifluoropropan-2-ol] | 500 to 2000 nM | 500 to 1000 nM | < 100 nM |  |
